From patent publication US8344028B2, “Gamma-amino-butyric acid derivatives as GABAB receptor ligands” (XenoPort, Inc., priority 2009, dated 2013)

Assays:
[1] = Bioavailability following oral administration to rats; details: rat, in vivo
Experimental: Rats were obtained commercially and were pre-cannulated in the jugular vein. Animals were conscious at the time of the experiment. All animals were fasted overnight and until 4 hours post-dosing of a compound.
Rat blood samples (0.3 mL/sample) were collected from all animals prior to dosing and at different time-points up to 24 h post-dose into tubes containing EDTA. Two aliquots (100 μL each) were quenched with 300 μL methanol and stored at −20° C. prior to analysis.
To prepare analysis standards, 90 μL of rat blood was quenched with 300 μL methanol followed by 10 μL of spiking standard and/or 20 μL of internal standard. The sample tubes were vortexed for at least 2 min and then centrifuged at 3400 rpm for 20 min. The supernatant was then transferred to an injection vial or plate for analysis by LC-MS-MS.
To prepare samples for analysis, 20 μL of internal standard was added to each quenched sample tube. The sample tubes were vortexed for at least 2 min and then centrifuged at 3400 rpm for 20 min. The supernatant was then transferred to an injection vial or plate for analysis by LC-MS-MS.
LC/MS/MS analysis was performed using an API 2000 or API 4000 mass spectrometer equipped with a Shimadzu and or Agilent HPLC system are used for determination concentration of compounds in rat blood. A Varian Polaris C18, 3μ 50×4.6 mm column was used. 0.1% Formic acid in water and acetonitrile were applied as the mobile phase. Runs were 4.0 min. […] L-4-Chlorophenylalanine was used as an internal standard at m/z 200.00/154.00.
Non-compartmental analysis was performed using WinNonlin software (v.3.1 Professional Version, Pharsight Corporation, Mountain View, Calif.) on individual animal profiles. […]
The oral bioavailability (F %) of a compound was determined by comparing the area under the compound concentration vs time curve (AUC) following oral administration of a prodrug of a GABAB ligand with the AUC of the compound concentration vs time curve following intravenous administration of the GABAB ligand on a dose normalized basis.

[2] = molecular target: T1, recombinant human GABABR1a2 (Homo sapiens, UniProt Q9UBS5); test: Ca2+ assay for determining GABAB receptor agonist activity; format: cell-based; details: cells expressing recombinant human GABABR1a2
T1 construct: expressed in transfected cells; host or cells: HEK cells
T1 sequence (Q9UBS5 15-961 limits assumed): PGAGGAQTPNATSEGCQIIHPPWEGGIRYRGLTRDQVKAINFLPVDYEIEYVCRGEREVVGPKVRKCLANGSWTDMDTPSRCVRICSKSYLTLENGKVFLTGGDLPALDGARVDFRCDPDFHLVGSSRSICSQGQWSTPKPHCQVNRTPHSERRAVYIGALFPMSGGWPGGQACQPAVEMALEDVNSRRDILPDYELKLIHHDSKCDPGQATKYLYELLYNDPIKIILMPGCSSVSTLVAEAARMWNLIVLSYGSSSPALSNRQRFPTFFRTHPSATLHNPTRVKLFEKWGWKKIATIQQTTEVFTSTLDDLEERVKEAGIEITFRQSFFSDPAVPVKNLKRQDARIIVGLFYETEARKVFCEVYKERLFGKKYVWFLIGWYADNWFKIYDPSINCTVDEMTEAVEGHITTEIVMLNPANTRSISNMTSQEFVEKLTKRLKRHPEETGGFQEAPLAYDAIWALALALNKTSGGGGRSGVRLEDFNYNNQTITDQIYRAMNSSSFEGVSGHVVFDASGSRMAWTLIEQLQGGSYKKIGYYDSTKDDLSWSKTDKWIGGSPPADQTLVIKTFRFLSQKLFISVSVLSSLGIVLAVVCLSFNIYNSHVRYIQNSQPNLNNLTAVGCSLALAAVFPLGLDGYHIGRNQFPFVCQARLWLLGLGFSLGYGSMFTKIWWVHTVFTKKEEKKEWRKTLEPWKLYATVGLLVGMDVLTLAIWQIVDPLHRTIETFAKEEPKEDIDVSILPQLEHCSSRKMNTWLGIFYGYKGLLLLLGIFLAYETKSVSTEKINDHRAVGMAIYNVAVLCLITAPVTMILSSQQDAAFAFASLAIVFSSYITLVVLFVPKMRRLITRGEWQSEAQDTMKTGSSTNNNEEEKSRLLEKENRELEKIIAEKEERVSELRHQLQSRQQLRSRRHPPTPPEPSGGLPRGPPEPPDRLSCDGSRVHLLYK
T1 sequence (O75899 42-941 partner): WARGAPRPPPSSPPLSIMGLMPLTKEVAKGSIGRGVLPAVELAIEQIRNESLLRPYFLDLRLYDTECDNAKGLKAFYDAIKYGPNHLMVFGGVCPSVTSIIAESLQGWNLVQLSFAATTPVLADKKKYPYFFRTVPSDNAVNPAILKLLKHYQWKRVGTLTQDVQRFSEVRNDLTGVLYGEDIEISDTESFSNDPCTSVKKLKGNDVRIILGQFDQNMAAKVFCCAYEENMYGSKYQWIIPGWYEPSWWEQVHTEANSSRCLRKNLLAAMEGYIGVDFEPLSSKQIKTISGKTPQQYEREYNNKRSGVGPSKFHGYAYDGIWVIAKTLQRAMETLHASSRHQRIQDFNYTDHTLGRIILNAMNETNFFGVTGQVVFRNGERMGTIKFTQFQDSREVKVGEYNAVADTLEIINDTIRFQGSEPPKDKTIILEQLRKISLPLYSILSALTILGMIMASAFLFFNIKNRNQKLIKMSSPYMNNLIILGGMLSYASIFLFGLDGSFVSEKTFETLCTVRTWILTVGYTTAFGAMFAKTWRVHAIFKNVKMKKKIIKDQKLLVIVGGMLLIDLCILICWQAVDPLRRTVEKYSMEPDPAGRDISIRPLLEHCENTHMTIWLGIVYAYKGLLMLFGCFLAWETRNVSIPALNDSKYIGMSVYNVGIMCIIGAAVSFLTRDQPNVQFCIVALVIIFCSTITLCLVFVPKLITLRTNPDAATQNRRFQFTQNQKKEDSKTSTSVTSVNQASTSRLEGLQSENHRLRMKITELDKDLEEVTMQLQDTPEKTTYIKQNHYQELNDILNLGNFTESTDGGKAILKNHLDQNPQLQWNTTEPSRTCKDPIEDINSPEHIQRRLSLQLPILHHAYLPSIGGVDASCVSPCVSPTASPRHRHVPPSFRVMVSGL

- oral bioavailability (F %) [1]: greater than 10%
- EC50 [2]: < 700 nM
SMILES: Cl.NC[C@H](CC(=O)O)c1ccc(Cl)c(OCc2ccncc2)c1 [Example 68, (3R)-4-Amino-3-[4-chloro-3-(4-pyridylmethoxy)phenyl]butanoic acid hydrochloride]
